From ChEMBL document CHEMBL1201862, “PubChem BioAssay data set” (2004)
Activity calls are given as the source filed them.

Experiments:
[1] = biological target: Cytochrome P450 3A4 (Homo sapiens, UniProt P08684);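 further: CYP3A4 tested as one member of a cytochrome P450 panel screen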
[2] = tested on: Staphylococcus aureus; assay: Inhibitors of Bacterial Quorum Sensing Structure Activity Relationship (SAR) Analysis: Dose Response Assay. [Related pubchem assays: 700, 527 ]; format: functional, organism-based
[3] = tested on: BJ; assay: cytotoxicity toward BJ-TERT fibroblasts, dose response, cell-based, RAS-independent, luminescence (AID 1933); format: functional; details: Homo sapiens
[4] = cells; format: functional, cell-based
[5] = Luminescence Cell-Based Dose Response HTS to Identify Inhibitors of 5'UTR Stem-Loop Driven Prion Protein mRNA Translation in H4 Neuroglioblastoma Cells. [Related pubchem assays: 1827 (Project Summary), 1813 (Primary HTS)]; format: functional
[6] = tested on: BJ; assay: cells; format: functional, cell-based; details: Homo sapiens
[7] = HEK293 cell cytotoxicity, dose response, cytotoxicity control, dry powder samples (AID 720567); format: functional, cell-based
[8] = cytotoxicity toward DRD oncogenic fibroblasts, dose response, cell-based, non-viral oncogenic, luminescence (AID 1934); format: functional; details: Homo sapiens
[9] = inhibitors of firefly luciferase expression or activity, dose response, H4 neuroglioma cells, luminescence (AID 1990); format: functional, cell-based
[10] = tested on: BJ; assay: cytotoxicity toward BJ-TERT-LT-ST fibroblasts, dose response, cell-based, RAS-independent, luminescence (AID 1935); format: functional; details: Homo sapiens;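 further: BJ fibroblasts immortalized with TERT plus LT and ST oncogenes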
[11] = inhibitors of SNCA 5'UTR-driven translation, confirmation, luminescence, H4 neuroglioblastoma cells, dose confirmation (AID 2454); format: functional, cell-based;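 further: H4 neuroglioblastoma cells carrying an alpha-synuclein 5'UTR luciferase reporter; potency for inhibition of the luciferase signal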
[12] = inhibitors of SNCA 5'UTR-driven reporter translation, confirmation, H4 neuroglioma cells, luminescence (AID 1988); format: functional, cell-based
[13] = luciferase reporter signal reduction – luminescence, H4-C neuroglioblastoma cells, dose response (AID 2458); format: functional, cell-based;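 further: H4 neuroglioblastoma cells stably carrying a luciferase reporter gene fusion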
[14] = LGR2 antagonists, dose response, cell-based, HEK293, CRE-luciferase reporter, cherry pick, set 2 (AID 743343); format: functional;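 further: transfected cells were stimulated with diluted bursicon conditioned medium after compound addition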
[15] = HEK293 cell cytotoxicity, dose response, cytotoxicity control, plate reader, cherry-picked samples (AID 743446); format: functional, cell-based
[16] = biological target: Neurotensin receptor type 1 (Homo sapiens, UniProt P30989); format: functional;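 further: Image-based confirmatory dose-response assay measuring agonist activity at NTR1; NTR1-expressing U2OS osteosarcoma cells imaged for beta-arrestin GFP spot formation; agonist potency where compounds increase beta-arrestin recruitment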
[17] = MC4R antagonists, dose response, counter-screen for LGR2 antagonist project, cell-based, plate reader, cherry pick (AID 743444); format: functional;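 further: transfected HEK 293 cells stimulated with alpha-MSH peptide; potency of inhibitors of the alpha-MSH evoked signal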
[18] = A549 cell cytotoxicity, dose response, cytotoxicity control, plate reader, cherry-pick, antagonist series (AID 743412); format: functional, cell-based
[19] = HepG2 cell cytotoxicity, dose response, cytotoxicity control, plate reader, cherry-pick, antagonist series (AID 743416); format: functional, cell-based
[20] = biological target: Cytochrome P450 2C9 (Homo sapiens, UniProt P11712); details: Potency
[21] = biological target: T1, Dual specificity protein phosphatase 6 (Rattus norvegicus, UniProt Q64346)
T1 sequence (Q64346 whole entry): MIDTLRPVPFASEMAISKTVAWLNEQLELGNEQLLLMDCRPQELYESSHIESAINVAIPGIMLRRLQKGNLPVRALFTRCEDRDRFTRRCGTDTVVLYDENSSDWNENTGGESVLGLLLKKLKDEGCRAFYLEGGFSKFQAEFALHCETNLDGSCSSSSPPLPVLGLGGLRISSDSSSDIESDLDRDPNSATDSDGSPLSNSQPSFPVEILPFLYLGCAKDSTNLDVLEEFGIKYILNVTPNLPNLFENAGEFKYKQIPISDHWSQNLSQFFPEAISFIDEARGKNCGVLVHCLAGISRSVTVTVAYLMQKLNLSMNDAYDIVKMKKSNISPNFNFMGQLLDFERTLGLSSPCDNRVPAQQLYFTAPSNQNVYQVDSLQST

[22] = biological target: T2, Tyrosine-protein phosphatase non-receptor type 7 (Homo sapiens, UniProt P35236); format: functional
T2 sequence (P35236 whole entry): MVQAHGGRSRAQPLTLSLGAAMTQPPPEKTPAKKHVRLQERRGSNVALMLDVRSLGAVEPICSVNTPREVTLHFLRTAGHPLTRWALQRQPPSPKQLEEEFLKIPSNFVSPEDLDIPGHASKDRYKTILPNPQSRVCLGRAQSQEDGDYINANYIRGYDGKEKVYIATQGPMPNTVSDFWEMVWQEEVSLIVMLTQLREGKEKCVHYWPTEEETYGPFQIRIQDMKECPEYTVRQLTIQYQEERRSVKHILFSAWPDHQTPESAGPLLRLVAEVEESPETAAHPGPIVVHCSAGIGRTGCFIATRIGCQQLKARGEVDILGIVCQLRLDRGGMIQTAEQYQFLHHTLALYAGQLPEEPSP

[23] = biological target: Bcl-2-like protein 10 (Homo sapiens, UniProt Q9HD36); assay: Biochemical TR3 FP assay of Bcl-B inhibitor potency, EC50 (AID 1243); format: functional
[24] = biological target: Heat shock 70 kDa protein 1A (Homo sapiens, UniProt P0DMV8); assay: Hsp70 inhibitors, SAR follow-up, biochemical, fluorescence polarization (AID 1072)
[25] = biological target: Glyceraldehyde-3-phosphate dehydrogenase (Homo sapiens, UniProt P04406)
[26] = biological target: T1, Dual specificity protein phosphatase 6; format: functional
[27] = biological target: Heat shock cognate 71 kDa protein (Homo sapiens, UniProt P11142); assay: In Vitro Hsc70 Dose Response Fluorescence Polarization Assay. [Related pubchem assays: 1072 ]
[28] = biological target: Oxytocin receptor (Homo sapiens, UniProt P30559); assay: Fluorescence-based cell-based high throughput dose response assay for agonists of the Oxytocin Receptor (OXTR). [Related pubchem assays: 2435 (Primary screen (OXTR agonists in singlicate)), 434991 (Counterscreen (V1R agonists in triplicate)), 2482 (Summary (OXTR agonists)), 434963 (Confirmation screen (OXTR agonists in triplicate))]; format: functional
[29] = biological target: Vasopressin V1a receptor (Homo sapiens, UniProt P37288); assay: Counterscreen for Oxytocin Receptor (OXTR) agonists: Fluorescence-based cell-based high throughput dose response assay to identify agonists of the vasopressin 1 receptor (V1R). [Related pubchem assays: 2435 (Primary screen (OXTR agonists in singlicate)), 434991 (Counterscreen (V1R agonists in triplicate)), 2482 (Summary (OXTR agonists)) …; format: functional
[30] = biological target: Beta-2 adrenergic receptor (Homo sapiens, UniProt P07550); assay: beta2AR agonists driving receptor internalization, dose response, cell-based, FAP fluorogen, flow cytometry, cherry pick 1 (AID 588763); format: functional
[31] = HEp-2 cell cytotoxicity, dose response, cytotoxicity control for RSV inhibitor project, HTS (AID 2410); format: functional; details: human respiratory syncytial virus
[32] = biological target: Lysosomal acid glucosylceramidase (Homo sapiens, UniProt P04062); assay: Dose response cell-based high throughput screening assay to identify enhancers of beta-glucosidase activity. [Related pubchem assays: 784 ]; format: functional
[33] = Cytotoxicity screening for potential Inhibitors of Bacterial Capsule Biogenesis. [Related pubchem assays (depositor defined):AID488970]; format: functional
[34] = inhibitors of intracellular T. cruzi replication, confirmation, NIH3T3 host cells, beta-gal luminescence (AID 2044); format: functional, cell-based;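 further: intracellular parasites grown in NIH/3T3 mouse fibroblasts as host cells; luminescent beta-galactosidase reporter signal from transgenic T. cruzi replicating inside host cells; inhibitors lower the luminescence signal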
[35] = cytotoxicity toward NIH3T3 fibroblasts, dose response, counter-screen, cell-based, ATP luminescence, mouse fibroblasts (AID 2010); format: functional;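 further: cells exposed to compound for about 90 hours before reading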
[36] = biological target: T3, Alkaline phosphatase, tissue-nonspecific isozyme (Homo sapiens, UniProt P05186)
T3 sequence (P05186 whole entry): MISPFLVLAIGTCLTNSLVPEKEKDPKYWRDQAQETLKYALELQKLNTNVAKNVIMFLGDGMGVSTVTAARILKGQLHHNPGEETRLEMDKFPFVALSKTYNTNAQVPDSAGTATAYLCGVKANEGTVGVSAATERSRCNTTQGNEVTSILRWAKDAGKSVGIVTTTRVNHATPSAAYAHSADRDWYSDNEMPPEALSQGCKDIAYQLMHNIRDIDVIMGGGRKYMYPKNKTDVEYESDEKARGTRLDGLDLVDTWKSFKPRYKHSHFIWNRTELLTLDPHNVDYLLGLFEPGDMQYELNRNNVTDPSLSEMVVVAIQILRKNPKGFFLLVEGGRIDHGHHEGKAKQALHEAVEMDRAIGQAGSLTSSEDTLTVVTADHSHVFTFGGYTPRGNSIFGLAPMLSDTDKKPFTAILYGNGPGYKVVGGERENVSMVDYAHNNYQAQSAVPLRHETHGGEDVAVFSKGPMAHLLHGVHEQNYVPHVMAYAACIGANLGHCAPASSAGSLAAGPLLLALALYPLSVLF

[37] = biological target: T4, Neuropeptides B/W receptor type 1 (Homo sapiens, UniProt P48145); assay: Fluorescence-based dose response cell-based high throughput screening assay to identify antagonists of the G-protein coupled receptor 7 (GPR7). [Related pubchem assays: 1952 (Screening assay (GPR7 antagonists).), 1880 (Summary AID.)]; format: functional
T4 sequence (P48145 whole entry): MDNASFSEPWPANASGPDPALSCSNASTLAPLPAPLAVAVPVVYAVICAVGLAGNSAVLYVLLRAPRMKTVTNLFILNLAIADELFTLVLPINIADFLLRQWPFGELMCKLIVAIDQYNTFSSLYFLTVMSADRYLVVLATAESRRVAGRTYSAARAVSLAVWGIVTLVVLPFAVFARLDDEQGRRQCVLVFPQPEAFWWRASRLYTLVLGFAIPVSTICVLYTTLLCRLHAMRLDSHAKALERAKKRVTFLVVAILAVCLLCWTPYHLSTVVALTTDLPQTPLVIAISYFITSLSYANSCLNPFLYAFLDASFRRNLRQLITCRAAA

[38] = biological target: T5, Rac GTPase-activating protein 1 (Homo sapiens, UniProt Q9H0H5); assay: MgcRacGAP GTPase-activating activity inhibitors, confirmation, biochemical, ADP Hunter fluorescence, primary and confirmatory (AID 624330); format: functional
T5 sequence (Q9H0H5 whole entry): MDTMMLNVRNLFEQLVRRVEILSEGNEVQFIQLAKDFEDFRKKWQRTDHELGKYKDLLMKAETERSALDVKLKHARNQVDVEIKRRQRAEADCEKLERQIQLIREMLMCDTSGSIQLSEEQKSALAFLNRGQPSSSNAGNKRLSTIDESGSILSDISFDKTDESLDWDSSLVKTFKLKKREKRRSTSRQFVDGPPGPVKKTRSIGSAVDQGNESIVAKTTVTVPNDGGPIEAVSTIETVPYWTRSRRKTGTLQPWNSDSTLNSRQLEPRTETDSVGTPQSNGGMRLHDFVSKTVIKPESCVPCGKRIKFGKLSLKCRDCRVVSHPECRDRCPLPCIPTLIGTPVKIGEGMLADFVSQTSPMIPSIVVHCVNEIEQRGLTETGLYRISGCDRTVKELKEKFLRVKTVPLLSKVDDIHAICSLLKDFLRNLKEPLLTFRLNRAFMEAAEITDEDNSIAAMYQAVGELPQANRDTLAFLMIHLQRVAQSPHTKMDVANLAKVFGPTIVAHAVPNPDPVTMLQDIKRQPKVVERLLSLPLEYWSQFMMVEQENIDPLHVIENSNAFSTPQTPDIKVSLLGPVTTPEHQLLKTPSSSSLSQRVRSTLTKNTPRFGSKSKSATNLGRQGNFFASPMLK

[39] = biological target: Melanin-concentrating hormone receptor 1 (Homo sapiens, UniProt Q99705); assay: Fluorescence-based counterscreen for antagonists of the G-protein coupled receptor 7 (GPR7): cell-based high throughput dose response assay to identify antagonists of the melanin-concentrating hormone receptor 1 (MCHR1).; format: functional
[40] = biological target: G2/mitotic-specific cyclin-B1 (Homo sapiens, UniProt P14635); assay: G2/M cell cycle arrest in HeLa, late-stage follow-up, mechanism study for Wee1 degradation inhibitor project, FACS, panel member Cyclin B Degradation (AID 2088)
[41] = biological target: Wee1-like protein kinase (Homo sapiens, UniProt P30291); assay: G2/M cell cycle arrest in HeLa, late-stage follow-up, mechanism study for Wee1 degradation inhibitor project, FACS, panel member Wee1 Degradation (AID 2088)

Oxytocin receptor, sequence (P30559 whole entry): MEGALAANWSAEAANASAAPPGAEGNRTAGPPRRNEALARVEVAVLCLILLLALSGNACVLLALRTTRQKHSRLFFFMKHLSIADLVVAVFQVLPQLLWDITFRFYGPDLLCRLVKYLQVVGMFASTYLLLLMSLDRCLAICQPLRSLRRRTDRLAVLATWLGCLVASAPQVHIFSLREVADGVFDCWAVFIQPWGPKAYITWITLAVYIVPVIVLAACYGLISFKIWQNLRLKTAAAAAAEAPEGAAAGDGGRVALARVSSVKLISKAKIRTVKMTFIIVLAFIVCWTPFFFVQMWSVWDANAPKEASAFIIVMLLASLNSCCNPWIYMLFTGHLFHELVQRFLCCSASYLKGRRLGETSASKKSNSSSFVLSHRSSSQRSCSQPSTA
Cytochrome P450 2C9, sequence (P11712 whole entry): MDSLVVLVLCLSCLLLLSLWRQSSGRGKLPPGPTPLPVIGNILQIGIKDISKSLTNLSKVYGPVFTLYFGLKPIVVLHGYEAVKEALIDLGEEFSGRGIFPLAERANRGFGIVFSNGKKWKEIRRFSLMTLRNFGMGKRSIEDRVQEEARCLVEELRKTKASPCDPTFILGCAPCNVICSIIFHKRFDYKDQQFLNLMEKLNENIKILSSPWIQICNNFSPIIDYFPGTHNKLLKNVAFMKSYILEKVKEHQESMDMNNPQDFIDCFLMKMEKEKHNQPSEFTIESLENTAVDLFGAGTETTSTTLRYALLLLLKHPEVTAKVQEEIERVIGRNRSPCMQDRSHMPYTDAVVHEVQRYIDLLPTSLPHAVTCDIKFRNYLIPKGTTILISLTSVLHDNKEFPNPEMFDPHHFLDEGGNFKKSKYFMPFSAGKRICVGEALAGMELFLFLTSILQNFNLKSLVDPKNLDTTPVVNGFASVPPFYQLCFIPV
Glyceraldehyde-3-phosphate dehydrogenase, sequence (P04406 whole entry): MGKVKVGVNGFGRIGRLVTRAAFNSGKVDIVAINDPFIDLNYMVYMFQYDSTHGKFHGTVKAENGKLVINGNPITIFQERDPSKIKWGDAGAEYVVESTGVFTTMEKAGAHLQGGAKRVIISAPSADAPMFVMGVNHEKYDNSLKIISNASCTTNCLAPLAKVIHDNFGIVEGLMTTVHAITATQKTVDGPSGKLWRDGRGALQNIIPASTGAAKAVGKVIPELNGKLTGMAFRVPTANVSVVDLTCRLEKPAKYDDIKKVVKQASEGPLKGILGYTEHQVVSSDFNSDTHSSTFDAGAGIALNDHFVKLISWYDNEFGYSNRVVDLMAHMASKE
Neurotensin receptor type 1, sequence (P30989 whole entry): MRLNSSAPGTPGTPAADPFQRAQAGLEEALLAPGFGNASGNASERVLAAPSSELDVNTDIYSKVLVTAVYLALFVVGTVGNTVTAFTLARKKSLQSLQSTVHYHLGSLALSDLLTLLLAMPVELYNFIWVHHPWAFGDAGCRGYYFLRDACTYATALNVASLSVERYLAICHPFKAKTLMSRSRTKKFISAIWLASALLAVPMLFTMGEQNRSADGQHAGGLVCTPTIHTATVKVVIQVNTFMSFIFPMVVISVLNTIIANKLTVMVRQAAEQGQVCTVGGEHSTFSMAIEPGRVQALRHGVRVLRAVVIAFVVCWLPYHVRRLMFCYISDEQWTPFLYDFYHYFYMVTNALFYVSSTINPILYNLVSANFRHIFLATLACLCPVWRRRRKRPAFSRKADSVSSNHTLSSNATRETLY
Heat shock cognate 71 kDa protein, sequence (P11142 whole entry): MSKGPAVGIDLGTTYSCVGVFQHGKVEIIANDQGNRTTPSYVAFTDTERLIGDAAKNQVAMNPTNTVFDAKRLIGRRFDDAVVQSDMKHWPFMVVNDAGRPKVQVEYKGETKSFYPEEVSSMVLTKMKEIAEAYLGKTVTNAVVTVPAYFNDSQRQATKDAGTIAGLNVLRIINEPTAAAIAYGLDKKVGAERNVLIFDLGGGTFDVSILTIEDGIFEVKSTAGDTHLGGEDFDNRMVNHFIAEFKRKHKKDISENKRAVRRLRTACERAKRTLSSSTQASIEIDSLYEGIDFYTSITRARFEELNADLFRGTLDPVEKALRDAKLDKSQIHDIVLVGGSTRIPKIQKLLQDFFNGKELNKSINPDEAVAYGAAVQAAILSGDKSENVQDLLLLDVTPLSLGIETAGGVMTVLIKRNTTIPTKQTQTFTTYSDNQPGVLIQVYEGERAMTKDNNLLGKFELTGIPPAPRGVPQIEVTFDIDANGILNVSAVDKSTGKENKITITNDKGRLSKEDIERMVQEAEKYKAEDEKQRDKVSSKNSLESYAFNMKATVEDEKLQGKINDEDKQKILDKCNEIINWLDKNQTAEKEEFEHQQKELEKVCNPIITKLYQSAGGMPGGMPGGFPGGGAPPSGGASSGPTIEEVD
Vasopressin V1a receptor, sequence (P37288 whole entry): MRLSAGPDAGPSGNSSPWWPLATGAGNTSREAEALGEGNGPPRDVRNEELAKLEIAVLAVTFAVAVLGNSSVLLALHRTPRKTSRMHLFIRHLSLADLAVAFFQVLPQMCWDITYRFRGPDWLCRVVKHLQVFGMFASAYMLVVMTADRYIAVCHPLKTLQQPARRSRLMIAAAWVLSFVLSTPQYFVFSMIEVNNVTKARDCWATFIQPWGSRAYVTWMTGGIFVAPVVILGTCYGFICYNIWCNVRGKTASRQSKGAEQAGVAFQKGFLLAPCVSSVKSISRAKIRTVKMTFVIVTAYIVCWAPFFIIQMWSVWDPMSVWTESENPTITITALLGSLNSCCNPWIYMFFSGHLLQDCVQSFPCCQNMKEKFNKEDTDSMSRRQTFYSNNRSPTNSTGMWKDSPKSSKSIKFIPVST
Melanin-concentrating hormone receptor 1, sequence (Q99705 whole entry): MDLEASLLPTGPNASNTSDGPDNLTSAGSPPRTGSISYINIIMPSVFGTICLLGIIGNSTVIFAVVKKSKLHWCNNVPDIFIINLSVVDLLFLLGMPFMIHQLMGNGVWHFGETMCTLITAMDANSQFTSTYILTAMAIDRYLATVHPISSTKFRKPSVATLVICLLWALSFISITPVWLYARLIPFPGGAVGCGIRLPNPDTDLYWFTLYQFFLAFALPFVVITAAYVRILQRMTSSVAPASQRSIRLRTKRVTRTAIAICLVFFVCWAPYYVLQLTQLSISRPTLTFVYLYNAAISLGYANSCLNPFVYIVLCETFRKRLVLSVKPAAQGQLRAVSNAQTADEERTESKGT
Bcl-2-like protein 10, sequence (Q9HD36 whole entry): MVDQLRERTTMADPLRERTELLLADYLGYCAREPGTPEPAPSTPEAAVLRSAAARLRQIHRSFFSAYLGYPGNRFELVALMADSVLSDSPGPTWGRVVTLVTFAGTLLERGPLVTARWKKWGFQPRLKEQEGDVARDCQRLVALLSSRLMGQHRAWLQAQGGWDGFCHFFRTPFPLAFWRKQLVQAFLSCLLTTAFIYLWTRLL
Heat shock 70 kDa protein 1A, sequence (P0DMV8 whole entry): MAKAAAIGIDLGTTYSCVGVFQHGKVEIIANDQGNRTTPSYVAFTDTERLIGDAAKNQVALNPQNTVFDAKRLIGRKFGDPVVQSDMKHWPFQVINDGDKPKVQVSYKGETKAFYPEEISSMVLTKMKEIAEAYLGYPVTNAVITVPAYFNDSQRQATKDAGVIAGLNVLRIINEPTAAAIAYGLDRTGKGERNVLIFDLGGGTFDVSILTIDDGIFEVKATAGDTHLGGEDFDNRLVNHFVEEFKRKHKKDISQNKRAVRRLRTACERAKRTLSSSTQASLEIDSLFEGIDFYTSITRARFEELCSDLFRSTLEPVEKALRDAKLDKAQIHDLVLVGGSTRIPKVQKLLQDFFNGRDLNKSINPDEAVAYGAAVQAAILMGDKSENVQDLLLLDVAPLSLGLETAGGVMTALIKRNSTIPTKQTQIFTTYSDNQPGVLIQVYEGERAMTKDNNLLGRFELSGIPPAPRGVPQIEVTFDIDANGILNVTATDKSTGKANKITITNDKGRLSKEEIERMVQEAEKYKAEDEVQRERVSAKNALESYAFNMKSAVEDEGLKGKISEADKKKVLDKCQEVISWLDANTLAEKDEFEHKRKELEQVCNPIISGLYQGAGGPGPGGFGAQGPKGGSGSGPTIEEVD
Cytochrome P450 3A4, sequence (P08684 whole entry): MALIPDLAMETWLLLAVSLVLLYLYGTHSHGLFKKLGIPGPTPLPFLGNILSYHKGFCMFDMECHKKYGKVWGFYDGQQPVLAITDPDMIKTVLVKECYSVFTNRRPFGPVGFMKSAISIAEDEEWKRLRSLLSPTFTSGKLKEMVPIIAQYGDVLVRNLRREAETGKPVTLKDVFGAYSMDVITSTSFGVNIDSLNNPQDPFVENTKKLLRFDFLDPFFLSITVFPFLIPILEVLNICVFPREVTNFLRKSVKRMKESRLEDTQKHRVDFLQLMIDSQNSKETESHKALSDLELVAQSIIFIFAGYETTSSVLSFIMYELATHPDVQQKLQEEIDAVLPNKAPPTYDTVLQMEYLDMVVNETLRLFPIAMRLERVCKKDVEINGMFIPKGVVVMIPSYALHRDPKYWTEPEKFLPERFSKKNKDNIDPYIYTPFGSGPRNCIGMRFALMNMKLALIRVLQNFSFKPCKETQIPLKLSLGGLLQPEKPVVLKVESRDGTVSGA
Lysosomal acid glucosylceramidase, sequence (P04062 whole entry): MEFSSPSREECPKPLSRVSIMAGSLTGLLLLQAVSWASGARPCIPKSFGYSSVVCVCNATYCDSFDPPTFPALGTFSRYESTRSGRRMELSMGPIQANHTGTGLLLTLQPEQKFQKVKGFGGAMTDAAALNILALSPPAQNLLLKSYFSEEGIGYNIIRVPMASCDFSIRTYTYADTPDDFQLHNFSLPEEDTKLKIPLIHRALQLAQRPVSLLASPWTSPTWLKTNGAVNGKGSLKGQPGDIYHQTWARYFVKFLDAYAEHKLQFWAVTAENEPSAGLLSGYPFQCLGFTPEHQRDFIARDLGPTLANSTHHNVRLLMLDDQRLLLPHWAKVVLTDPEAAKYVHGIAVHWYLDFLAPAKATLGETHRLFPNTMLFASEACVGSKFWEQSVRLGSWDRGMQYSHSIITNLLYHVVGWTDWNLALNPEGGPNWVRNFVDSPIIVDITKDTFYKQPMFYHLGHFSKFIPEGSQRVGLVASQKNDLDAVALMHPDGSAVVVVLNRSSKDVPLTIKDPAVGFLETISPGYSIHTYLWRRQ

Cc1cccc(Nc2ccccc2C(=O)O)c1C [MEFENAMIC ACID]
AC50 [1]: inconclusive
IC50 [2]: 1.34 µM (active)

CCOc1ccc(NC(=O)c2cc(OC)nc3ccccc23)cc1
EC50 [3]: 1.11 µM (active)
EC50 [4]: 1.96 µM (active)
EC50 [5]: 0.303 µM (active)
EC50 [6]: 69.8 µM (inconclusive)
AC50 [7]: > 30 µM (inactive)
EC50 [8]: 0.894 µM (active)
EC50 [9]: 4.73 µM (active)
EC50 [10]: 1.38 µM (inconclusive)
EC50 [11]: 1.16 µM (active)
EC50 [12]: < 0.1 µM (active)
EC50 [13]: 0.965 µM (active)

COc1ccc2sc(-c3ccc(S(C)(=O)=O)cc3)c(C#CCO)c2c1
AC50 [14]: 25 µM (active)
AC50 [15]: 16.8 µM (active)
EC50 [16]: 26.6 µM (inactive)
AC50 [17]: 30.1 µM (active)
AC50 [18]: 10.6 µM (active)
AC50 [19]: 24.4 µM (active)

C/C=C/OC(=O)NC(c1ccccc1)[C@]1(C(C)=O)CCOC1=O (some centres undefined)
AC50 [20]: 0.794 µM (inconclusive)

CC(=O)Nc1ccc2c(c1)C1C=CCC1C(C(=O)O)N2 (centres undefined)
IC50 [21]: > 100 µM (inactive)
IC50 [22]: 21 µM (active)
EC50 [23]: 4.44 µM (active)
IC50 [24]: 35.2 µM (active)
IC50 [25]: > 100 µM (not active)
IC50 [26]: > 100 µM (inactive)
IC50 [27]: > 100 µM (not active)

COc1ccc(CCNCC(O)Cn2c3ccccc3c3ccccc32)cc1OC (centres undefined)
EC50 [5]: > 120 µM (not active)
EC50 [28]: 18.8 µM (not active)
EC50 [29]: 12.7 µM (not active)
EC50 [30]: 12.5 µM (inactive)
EC50 [9]: 8.76 µM (active)
CC50 [31]: 13.7 µM (active)
EC50 [12]: > 120 µM (not active)

CC(C)(C)NC(=O)CSc1nncn1NCc1ccccc1
EC50 [32]: > 50 µM (not active)

COc1cc(/C=N/N=C(N)N)ccc1OCc1ccccc1Cl
CC50 [33]: 6.19 µM (active)
EC50 [34]: 0.447 µM (active)
EC50 [35]: > 60 µM (not active)

C=CCNC(=S)NNC(=O)C(CCC(C)C)CC(C)O (centres undefined)
EC50 [36]: 43.5 µM (active)

CN(C)c1ccc(Nc2ccc([N+](=O)[O-])cn2)cc1
IC50 [37]: > 43.8 µM (not active)
IC50 [38]: 36.4 µM (active)
IC50 [39]: > 43.8 µM (not active)

Cc1cc(O)nc(-n2nc(C)cc2NC(=O)c2ccc(F)cc2)n1
EC50 [40]: > 49.7 µM (inactive)
EC50 [41]: > 16.6 µM (active)
